Reference: patent US20120252834A1 (priority 2009, published 2012)
Where two headings read alike, the source gives them in different places.

Tests used:
[1] = tested on: SEB-induced toxic shock in C3H/HeJ mice; conditions: mouse, in vivo
[2] = tested on: SEB-induced proliferation of T cells in PBMC; assay: cells; type: cell-based, human
[3] = tested on: human PBMC stimulated with SEB; assay: cells; type: cell-based; conditions: for inhibition at 6.9 µg/mL: Homo sapiens, PBMC, 16 h
[4] = tested on: serum MCP-1, IL-6 and IL-2 in SEB-treated mice; conditions: mouse, in vivo
PBMC = assay: Trypan Blue exclusion test on PBMC; conditions: data not shown
[5] = Determination of rapamycin in murine whole blood (HPLC, ion-trap MS); type: in vivo; conditions: mouse; for concentration at 1 h / concentration at 97 h: C3H/HeJ, whole blood; for concentration at 1 h: read-out: blood level of rapamycin
Experimental: Determination of rapamycin in murine whole blood. Blood was collected from rapamycin-treated mice (n=5) by retro-orbital bleeding into EDTA tubes 1 h after intranasal administration of rapamycin. Blood was centrifuged at 12000×g for 3 min to remove cells. Supernatants was removed and stored at −70° C. until analysis. Analysis of rapamycin was performed as previously described (23) using an Agilent Technologies series 1100 Capillary HPLC instrument and ion-trap mass spectrometer.

[6] = tested on: SEA-, TSST-1-, SPEA-, and SPEC-stimulated human peripheral blood mononuclear cells; type: cell-based; conditions: rapamycin 1 μg/mL
[7] = tested on: peripheral blood cells and splenocytes from mice treated with SEB; assay: Cellular apoptosis by JC-1 fluorescence (flow cytometry) in SEB-treated mice; type: in vivo, mouse; conditions: rapamycin 0.16 mg/kg i.n. at 17 h, cells taken 18 h after SEB
Experimental: Detection of cellular apoptosis by measuring fluorescence of mitochondrial J-aggregates. The loss of mitochondrial permeability, indicative of cellular apoptosis was detected by a fluorescent cationic dye, JC-1 (51). Briefly, peripheral blood or spleens were removed at 18 h from mice treated with SEB, SEB plus 0.16 mg/kg of intranasal rapamycin at 17 h after SEB exposure. Negative controls consisted of mice treated with DMSO at 17 h after saline. Red blood cells from peripheral blood and spleens were lyzed with FACS lyzing buffer (Becton Dickinson, Mountainview, Calif.) prior to staining with JC-1 dye according to manufacturer's instructions (Immunochemistry Technology, Bloomington, Minn.). Flow cytometer (Becton Dickinson) was used to measure cell fluorescence at 530 nm, which represents apoptotic cells.

[8] = tested on: lung MCP-1, IL-2 and IL-6 in SEB-exposed mice; conditions: mouse, in vivo
[9] = cited from earlier work

Compound `C[C@@H]1C[C@H]2[C@@H]3CCC4=CC(=O)C=C[C@]4(C)[C@@]3(F)[C@@H](O)C[C@]2(C)[C@@]1(O)C(=O)CO` [dexamethasone] has a lethality [1] of 90%.
In the case of `CO[C@H]1C[C@@H]2CC[C@@H](C)[C@@](O)(O2)C(=O)C(=O)N2CCCC[C@H]2C(=O)O[C@H]([C@H](C)C[C@@H]2CC[C@@H](O)[C@H](OC)C2)CC(=O)[C@H](C)/C=C(\C)[C@@H](O)[C@@H](OC)C(=O)[C@H](C)C[C@H](C)/C=C/C=C/C=C/1C` [rapamycin], the “reduction of T cell proliferation” value [2] is reported as 56%, the inhibition at 6.9 µg/mL ([2]; Homo sapiens, T-cell, 48 h, read-out: inhibition of SEB-induced T cell proliferation (maximal)) is reported as 94% and the “suppression of IFNγ” value [3] is reported as 36%. For the same compound, the “suppression of IL-2” value [3] was 34%, the inhibition at 6.9 µg/mL ([3]; read-out: inhibition of IL-1β production) was 97% and the inhibition at 6.9 µg/mL ([3]; read-out: inhibition of IL-2 production) was 100%. The inhibition at 6.9 µg/mL ([3]; read-out: inhibition of IL-6 production) was 67%, the inhibition at 6.9 µg/mL ([3]; read-out: inhibition of TNFα production) was 77% and the “effective in protecting mice from SEB-mediated shock” value [1] was 100%. The protected [1] was 100%, the protection [1] was 20% and the weight gain [1] was 8-17%. The “reduction of peak serum IL-6” value [4] was 80%, the “reduction of peak serum MCP-1” value [4] was 90% and the “cytotoxic effect (Trypan Blue exclusion)” value (PBMC) was “not due to cytotoxic effect”. The concentration at 1 h ([5]; other: intranasal followed by intraperitoneal, 1 h after multiple dosing (2 i.n. doses plus 1 i.p. dose)) was 692 ± 406 ng/mL, the concentration at 97 h ([5]; other: intranasal followed by intraperitoneal, at 97 h, lower doses (0.03 mg/kg i.n. at 2 and 5 h, 0.08 mg/kg i.p. at 24, 48, 72 and 96 h)) was 38 ± 15 ng/mL and the concentration at 97 h ([5]; other: intranasal followed by intraperitoneal, at 97 h after multiple dosing (i.n. 0.7 mg/kg at 2 and 5 h, i.p. 1.6 mg/kg at 30, 48, 72 and 96 h)) was 622 ± 282 ng/mL. The concentration at 1 h ([5]; other: intranasal, 0.7 mg/kg, 1 h after an i.n. dose of 0.7 mg/kg) was 492 ± 204 ng/mL, the “blood level of rapamycin” value ([5]; 1 h after an i.n. dose of 0.7 mg/kg, 0.7 mg/kg) was 658 ± 408 ng/mL and the “reduction of superantigen-induced T cell proliferation” value ([6]; SEA-stimulated) was 74%. The “reduction of superantigen-induced T cell proliferation” value ([6]; SPEA-stimulated) was 68%, the “reduction of superantigen-induced T cell proliferation” value ([6]; SPEC-stimulated) was 69% and the “reduction of superantigen-induced T cell proliferation” value ([6]; TSST-1-stimulated) was 42%. For the same compound, the “decrease in number of apoptotic cells” value ([7]; mouse peripheral blood) was 66%, the “decrease in number of apoptotic cells” value ([7]; mouse spleen) was 74% and the “attenuation of lung IL-2” value [8] was 80%. The “attenuation of lung IL-6” value [8] was 65%, the “attenuation of lung MCP-1” value [8] was 56% and the “blood concentrations of rapamycin” value ([9]; healthy subjects, 1 h after 15 mg of rapamycin) was 78.2 ± 18 ng/mL. For the same compound, the “blood levels of rapamycin” value ([9]; renal transplantation, 5 mg/day, at 1.8 h) was 37.4 ± 21 ng/mL.
